Key:
α-amylase (EC.3.2.1.1) = target: T1, α-amylase (EC.3.2.1.1) (Homo sapiens, UniProt P04746); assay: In vitro α-amylase inhibition (starch/DNS, 540 nm); assay type: biochemical; conditions: for IC50: test concentrations 2-10 µg, read-out: α-Amylase IC50±SD (converted)
T1 sequence (P04746 16-511): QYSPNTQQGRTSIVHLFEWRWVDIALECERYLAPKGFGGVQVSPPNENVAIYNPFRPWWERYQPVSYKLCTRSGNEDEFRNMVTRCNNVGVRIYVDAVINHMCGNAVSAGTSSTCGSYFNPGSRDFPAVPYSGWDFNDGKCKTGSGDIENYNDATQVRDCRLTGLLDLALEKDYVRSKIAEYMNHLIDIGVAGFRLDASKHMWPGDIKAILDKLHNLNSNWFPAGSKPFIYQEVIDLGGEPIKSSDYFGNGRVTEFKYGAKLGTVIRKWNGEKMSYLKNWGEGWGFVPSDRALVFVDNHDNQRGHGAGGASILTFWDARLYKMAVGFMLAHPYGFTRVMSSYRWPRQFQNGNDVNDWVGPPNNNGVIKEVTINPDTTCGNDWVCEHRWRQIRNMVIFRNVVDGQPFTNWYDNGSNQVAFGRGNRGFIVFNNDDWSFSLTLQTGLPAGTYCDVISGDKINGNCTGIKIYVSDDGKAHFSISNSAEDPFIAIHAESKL
Method: α-Amylase enzyme and other chemical reagents are used for enzyme inhibitory activity. The characterized compounds are diluted in an analytical grad solvent (DMSO) system at 1 mg/mL solution concentration. The activity reaction of the synthesized analogues on the enzyme was treated at final concentrations of 2 to 10 µg. In the interaction between enzyme and compounds, 10 min incubation was maintained before the inhibitory activity started. The enzyme-receptor inhibition efficiency was calculated and compared with the positive control.
Sodium phosphate buffer 0.2 mM (pH 6.9 with 6 × 10^− 4 M NaCl) in 500 µL enzyme solution (0.5 mg/mL) was taken and incubated with test samples (2–10 µg/mL) at room temperature for 10 min. A starch (1%) solution of 500 µL with phosphate buffer was added to all test inhibitor samples; further, the tubes were incubated for 10 min at 28 °C. The reaction test tubes were incubated for another 5 min in the water bath (100 °C) after the addition of the color reagent dinitro salicylic acid and cooled at room temperature until reached. Finally, 10 mL of distilled water was mixed with each test tube, and the colored mixture was measured at a fixed wavelength of 540 nm. The absorbance without sample solution (blank) and control (buffer and standard drug sample) was measured at 540 nm. The α-amylase inhibition efficiency was validated using the following equation:2 [drawing 2]

[1] = DPPH radical scavenging (517 nm); conditions: for IC50: read-out: DPPH IC50±SD
Method: (§1) The experimental method principle relies on the degradation of the purple color of the DPPH radical and the blue color reduction of the ABTS cation radical. This is due to consuming the electron or hydrogen radical from the antioxidant (A-H). Both assays were measured at 517 nm and 734 nm, respectively. The distinction of color changes illustrates the potential scavenging activity of the inhibitor molecules in terms of hydrogen-donating proficiency. From this, we can conclude the anti-oxidant efficacy.
Methanolic DPPH solution (0.15 mM) was prepared, and 1.0 mL of DPPH solution was mixed with 3.0 mL of synthesized molecules at different concentrations (20 µM to 100 µM). The mixture was constantly swirled and stored RT for 30 min, followed by absorbance measurement at 517 nm.

[2] = ABTS cation radical scavenging (734 nm); conditions: for IC50: read-out: ABTS IC50±SD
Method: as §1
In brief, 7.0 mM ABTS in H2O and 2.5 mM potassium persulfate (1:1) were shaken well to generate ABTS cation radicals and kept in the dark at RT for 15–20 h before it is used for the experiment. After, the radical was mixed with the synthesized molecules at different concentrations (20 µM to 100 µM). The resultant solution was measured for absorbance at 734 nm. Ascorbic acid is the positive control for this experiment.1 [drawing 1]

human RBC = assay: Anti-inflammatory activity: hypotonic solution-induced human RBC hemolysis (560 nm); assay type: cell-based; conditions: for IC50: induced human RBC hemolysis, read-out: Inflammatory IC50±SD
Method: All synthesized compounds are validated in human RBC (blood sample); the blood sample was collected from a healthy volunteer in an EDTA tube. The EDTA tube further proceeded with centrifugation at 3000 rpm for 30 min. A supernatant (which contains plasma and leucocytes) solution was isolated, and the obtained RBC (red blood cells) was further treated with Alsever’s reagent. Alsever’s reagent was prepared as follows: sodium citrate (0.8 g, 2.6 mmol), dextrose (2 g, 11.0 mmol), citric acid (0.050 g, […]), and sodium chloride (0.42 g, 7.0 mmol) were solubilized in 100 mL of distilled water. The above mixture was centrifuged for 30 min at 3000 rpm. Then, colloidal blood cells were separated, carefully transferred, and washed with 0.85% of the isosaline solution; this process continued until a clear solution appeared. Employing coagulated RBC and generated human erythrocyte hemolysis, the anti-inflammatory activity and potential of the synthesized entities were evaluated. The tested compounds are prepared at different concentrations for the inhibition activity of inflammation, along with 100 µL of a purified RBC sample utilized. All characterized samples were followed by adding 5.0 mL of trisodium phosphate (10 mM) and 5.0 mL of sodium chloride (5.0 mM) buffer solutions. After the addition of the above mixtures, the test samples are incubated for 15 min at room temperature with RBC and hypotonic mixtures. After incubation, the mixture was centrifuged at 3000 rpm for 15 min. The final supernatant liquid solution was measured at 560 nm using a UV-visible spectrophotometer.3 [drawing 3]

[3] = tested on: RAW macrophage cells (RAW 264.7); assay: MTT cell viability assay; assay type: cell-based; conditions: for MTT assay Average OD: control average OD 0.924
Method: The toxicity of the molecule was investigated by the MTT cell viability assay employing RAW macrophage cells. For this study, two lead compounds, 2b and 2e, were screened based on the in vitro results. […] (The OD values in Tables S6 and S7)
The MTT ((3-(4,5-Dimethylthiazol-2-yl)-2,5-Diphenyltetrazolium Bromide)) assay was employed to determine viability for the synthesized potent compounds 2b and 2e; the cell viability results portray the compounds’ cytotoxicity. The assay was conducted on RAW macrophage cells (RAW 264.7) with various dilutions of 2b and 2e (10, 20, 30, 40, and 50 µM). The results were confirmed with a control.

| SMILES | α-Amylase Inhibition % (α-amylase (EC.3.2.1.1); 2 µg) [%] | α-Amylase Inhibition % (α-amylase (EC.3.2.1.1); 4 µg) [%] | DPPH Inhibition % ([1]; 20 µM) [%] | DPPH Inhibition % ([1]; 40 µM) [%] | DPPH Inhibition % ([1]; 60 µM) [%] | DPPH Inhibition % ([1]; 80 µM) [%] | DPPH Inhibition % ([1]; 100 µM) [%] | IC50 [1] [µM] | ABTS Inhibition % ([2]; 20 µM) [%] | ABTS Inhibition % ([2]; 40 µM) [%] | ABTS Inhibition % ([2]; 60 µM) [%] | ABTS Inhibition % ([2]; 80 µM) [%] | ABTS Inhibition % ([2]; 100 µM) [%] | IC50 [2] [µM] | inhibition at 20 µM (human RBC) [%] | inhibition at 40 µM (human RBC) [%] | inhibition at 60 µM (human RBC) [%] | inhibition at 80 µM (human RBC) [%] | inhibition at 100 µM (human RBC) [%] | IC50 (human RBC) [µM] | other results |
| --- | --- | --- | --- | --- | --- | --- | --- | --- | --- | --- | --- | --- | --- | --- | --- | --- | --- | --- | --- | --- | --- |
| COC(=O)C=Cc1ccccc1OC(=O)c1cccnc1 [Compound 2g, 2-(3-Methoxy-3-oxoprop-1-en-1-yl)phenyl nicotinate] | 80.38 | 73.64 | 34.94 | 44.35 | 46.41 | 50.02 | 61.07 | 81.81 ± 0.01 | 56 | 57 | 58.1 | 60.2 | 62 | 21.85 ± 0.21 | 79 | 80.2 | 80.3 | 85.6 | 86 | 85.56 ± 0.25 | α-Amylase Inhibition % (α-amylase (EC.3.2.1.1); 6 µg): 73.06%; α-Amylase Inhibition % (α-amylase (EC.3.2.1.1); 8 µg): 40.84%; α-Amylase Inhibition % (α-amylase (EC.3.2.1.1); 10 µg): 29.72%; IC50 (α-amylase (EC.3.2.1.1)): 4.79 µM |
| O=C(Nc1ccc2c(c1)OCO2)c1cccnc1 [Compound 2j, N-(Benzo[1,3]dioxol-5-yl)nicotinamide] | 85.94 | 75.4 | 34.8 | 37.7 | 43.7 | 46 | 50.1 | 97.62 ± 0.24 | 28.3 | 39 | 42.4 | 45 | 47.9 | 57.25 ± 0.11 | 59 | 68 | 75 | 92.7 | 93 | 20.3 ± 0.22 | α-Amylase Inhibition % (α-amylase (EC.3.2.1.1); 6 µg): 74.67%; α-Amylase Inhibition % (α-amylase (EC.3.2.1.1); 8 µg): 68.96%; α-Amylase Inhibition % (α-amylase (EC.3.2.1.1); 10 µg): 57.1%; IC50 (α-amylase (EC.3.2.1.1)): 5.47 µM |
| COC(=O)C=Cc1cccc(OC(=O)c2cccnc2)c1 [Compound 2f, 3-(3-Methoxy-3-oxoprop-1-en-1-yl)-phenyl nicotinate] | 79.2 | 77.89 | 35.31 | 38.4 | 41.11 | 43.18 | 45.7 | 78.05 ± 0.08 | 27.6 | 33.8 | 41.5 | 52 | 60.1 | 81.05 ± 0.22 | 31 | 37 | 42 | 45.6 | 49 | 65.24 ± 0.18 | α-Amylase Inhibition % (α-amylase (EC.3.2.1.1); 6 µg): 56.22%; α-Amylase Inhibition % (α-amylase (EC.3.2.1.1); 8 µg): 47.87%; α-Amylase Inhibition % (α-amylase (EC.3.2.1.1); 10 µg): 36.74%; IC50 (α-amylase (EC.3.2.1.1)): 4.71 µM |
| COC(=O)/C=C/c1ccc(OC)c(OC(=O)c2cccnc2)c1 [Compound 2c, 2-Methoxy-5-(3-methoxy-3-oxoprop-1-en-1-yl) phenyl nicotinate] |  |  | 32 | 34.9 | 36.1 | 48 | 51.9 | 93.69 ± 0.26 | 58 | 59.7 | 59.8 | 60 | 60 | 20.57 ± 0.13 | 48 | 52.9 | 62.5 | 77 | 86 | 27.65 ± 0.2 | MTT assay Triplicate values OD1 ([3]; 10 µM): 0.824; MTT assay Triplicate values OD2 ([3]; 10 µM): 0.826; MTT assay Triplicate values OD3 ([3]; 10 µM): 0.819; MTT assay Average OD ([3]; 10 µM): 0.823; MTT assay Triplicate values OD1 ([3]; 20 µM): 0.754; MTT assay Triplicate values OD2 ([3]; 20 µM): 0.753; MTT assay Triplicate values OD3 ([3]; 20 µM): 0.758; MTT assay Average OD ([3]; 20 µM): 0.755; MTT assay Triplicate values OD1 ([3]; 30 µM): 0.689; MTT assay Triplicate values OD2 ([3]; 30 µM): 0.695; MTT assay Triplicate values OD3 ([3]; 30 µM): 0.692; MTT assay Average OD ([3]; 30 µM): 0.692; MTT assay Triplicate values OD1 ([3]; 40 µM): 0.596; MTT assay Triplicate values OD2 ([3]; 40 µM): 0.604; MTT assay Triplicate values OD3 ([3]; 40 µM): 0.606; MTT assay Average OD ([3]; 40 µM): 0.602; MTT assay Triplicate values OD1 ([3]; 50 µM): 0.520; MTT assay Triplicate values OD2 ([3]; 50 µM): 0.525; MTT assay Triplicate values OD3 ([3]; 50 µM): 0.518; MTT assay Average OD ([3]; 50 µM): 0.521 |
| CCOc1ccc2nc(NC(=O)c3cccnc3)sc2c1 [Compound 2k, N-(6-ethoxybenzothiazol-2-yl) nicotinamide] | 74.81 | 74.52 | 8.89 | 33.34 | 40.65 | 49.83 | 52.31 | 79.62 ± 0.14 | 37.6 | 41.8 | 46.3 | 47.9 | 55.8 | 88.03 ± 0.17 | 48.6 | 55 | 66.8 | 74.5 | 87.5 | 25.86 ± 0.23 | α-Amylase Inhibition % (α-amylase (EC.3.2.1.1); 6 µg): 69.98%; α-Amylase Inhibition % (α-amylase (EC.3.2.1.1); 8 µg): 69.69%; α-Amylase Inhibition % (α-amylase (EC.3.2.1.1); 10 µg): 55.63%; IC50 (α-amylase (EC.3.2.1.1)): 5.06 µM |

From publication PMC12494831, “Discovery of new pyridine 3-carboxylic acid-based pharmacophores as dual anti-inflammatory and anti-hyperglycemic agents” (Scientific Reports, 2025)
